Values quoted from earlier work as cited in US20070184116A1, “Pharmaceutical formulation containing unmilled flutamide” (priority 2004, published 2007).

solubility in acid medium (acid medium, for example 0.1% hydrochloric acid (pH corresponds to gastric juice)): virtually insoluble | solubility in water (water): virtually insoluble
Compound: CC(C)C(=O)Nc1ccc([N+](=O)[O-])c(C(F)(F)F)c1 [Flutamide, 2-methyl-N-[4-nitro-3-(trifluoromethyl)phenyl]propanamide]
